Earlier results as cited in US9161933B2, “Solid pharmaceutical composition comprising amlodipine and losartan and process for producing same” (HANMI SCIENCE CO., LTD, priority 2009, dated 2015).

Conditions: after food absorption

- reduction of Cmax of losartan: about 10%
Structure (SMILES): CCCCc1nc(Cl)c(CO)n1Cc1ccc(-c2ccccc2-c2nn[nH]n2)cc1 [losartan, 2-butyl-4-chloro-1-[[2′-(1H-tetrazol-5-yl)[1,1′-biphenyl]-4-yl]methyl]-1H-imidazol-5-methanol]
